The target in experiment [1] is full-length RORγt in Jurkat cells (Homo sapiens (Human), UniProt P51449). The experiment in a line: RORγt 5×RORE Assay in Jurkat Cells (Assay 2). The experiment is classed as cell-based. The settings on record: RORγt 5×RORE Nanoluc luciferase reporter. How it is done: [formula] RORγt 5×RORE Assay in Jurkat Cells (Assay 2)
Compounds described herein were tested for RORγ inverse agonist activity in a cell-based, transcriptional activity assay. […] (Promega, Cat. # N1021) using KpnI and HindIII restriction sites. […] Tested compounds were added to the cells in the same media (final concentration of DMSO was 0.1% (v/v)), and the plates were incubated at 37° C./5% CO2 for 16-18 hrs. Luciferase activity in the conditioned supernatants was determined with NanoGlo® assay reagents (Promega, Cat. # N1130).
A general note: In a reporter assay the amount or activity of a reporter protein is the signal.

In experiment [2] the target is recombinant RORγ Ligand Binding Domain (LBD) protein (Homo sapiens (Human), UniProt P51449). The experiment in a line: Radio-Ligand RORγ Binding Assay (Assay 1). The conditions noted are these: competition with 25-hydroxy [26,27-3H]-cholesterol, SPA. As to the method:
Radio-Ligand RORγ Binding Assay (Assay 1)
Compounds described herein were tested for ability to bind to RORγ in a cell-free competition assay with commercially available radio-ligand (RL), 25-hydroxy [26,27-^3H]-cholesterol (PerkinElmer, Cat. # NET674250UC), for a ligand binding site on a recombinant RORγ Ligand Binding Domain (LBD) protein expressed as a 6×His-Glutathione-S-Transferase (GST) fusion. […] The plate was shaken at 700 rpm for 20 min and incubated for 10 min at rt, after which 40 μL of poly-Lys YSi SPA beads (PerkinElmer, Cat. # RPNQ0010) were added to achieve 50 μg of the beads per well. The plate was incubated on an orbital shaker for 20 min and then for 10 min without agitation at rt. SPA signal for tritium beta radiation was registered on PerkinElmer Microbeta plate reader. […] The percent inhibition vs. concentration data were fit into a four-parameter model, and IC50 values were calculated from the fit as the concentrations corresponding to the inflection points on the dose-response curves.

Structures are written as SMILES.

The IC50 is the concentration needed to halve the response being measured. Low readings indicate inhibition by little substance, high ones a need for much substance. The term Ki denotes a dissociation constant, usually derived from enzyme kinetics or from competition with a known ligand.

full-length RORγt in Jurkat cells, sequence (P51449 other isoform, or with tags, fused parts or gaps): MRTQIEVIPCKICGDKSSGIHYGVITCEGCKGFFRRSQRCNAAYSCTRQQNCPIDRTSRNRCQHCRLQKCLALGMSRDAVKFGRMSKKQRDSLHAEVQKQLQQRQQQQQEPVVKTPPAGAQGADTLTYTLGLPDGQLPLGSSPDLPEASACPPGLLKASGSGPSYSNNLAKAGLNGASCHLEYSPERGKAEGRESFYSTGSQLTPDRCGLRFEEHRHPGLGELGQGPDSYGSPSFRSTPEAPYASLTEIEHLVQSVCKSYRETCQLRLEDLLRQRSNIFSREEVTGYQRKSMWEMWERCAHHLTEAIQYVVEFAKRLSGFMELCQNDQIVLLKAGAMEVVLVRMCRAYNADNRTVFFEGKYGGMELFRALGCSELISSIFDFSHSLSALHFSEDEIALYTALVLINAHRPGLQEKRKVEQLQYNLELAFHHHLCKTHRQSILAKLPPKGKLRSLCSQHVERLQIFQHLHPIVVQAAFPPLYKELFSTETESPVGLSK
recombinant RORγ Ligand Binding Domain (LBD) protein, sequence (P51449 269-508): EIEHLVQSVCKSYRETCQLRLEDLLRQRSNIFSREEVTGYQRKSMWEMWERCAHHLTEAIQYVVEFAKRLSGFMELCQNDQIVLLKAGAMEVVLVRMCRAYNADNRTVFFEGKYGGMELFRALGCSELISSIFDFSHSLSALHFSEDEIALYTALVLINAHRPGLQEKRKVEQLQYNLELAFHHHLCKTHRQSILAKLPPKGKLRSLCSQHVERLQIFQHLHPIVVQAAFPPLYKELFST

In the case of `CCS(=O)(=O)c1ccc([C@H](CO)NC(=O)c2ccc3c(c2)nc(C(=O)c2ccc(C(F)(F)F)cc2)n3C2CC2)cc1` [BE-61, (R)-1-cyclopropyl-N-(1-(4-(ethylsulfonyl)phenyl)-2-hydroxyethyl)-2-(4-(trifluoromethyl)benzoyl)-1H-benzo[d]imidazole-5-carboxamide], the half-maximal inhibitory concentration (IC50) in experiment [1] is less than 100 nM. Also, the inhibition constant (Ki) in experiment [2] was less than 100 nM.
As to `CCS(=O)(=O)c1ccc([C@H](COC(N)=O)NC(=O)c2ccc3c(c2)nc(C[C@H]2CC[C@H](C(F)(F)F)CC2)n3C2CC2)cc1` [BE-66, (R)-2-(1-cyclopropyl-2-(((1r,4R)-4-(trifluoromethyl)cyclohexyl)methyl)-1H-benzo[d]imidazole-5-carboxamido)-2-(4-(ethylsulfonyl)phenyl)ethyl carbamate], the IC50 in experiment [1] was less than 100 nM. Also, the Ki in experiment [2] is less than 100 nM.
`CCn1c(C[C@H]2CC[C@@H](C(F)(F)F)CC2)cc2cc(C(=O)NCc3ccc(S(=O)(=O)CC)cc3)ccc21` [IN-17.2, 1-ethyl-N-(4-(ethylsulfonyl)benzyl)-2-(((1s,4s)-4-(trifluoromethyl)cyclohexyl)methyl)-1H-indole-5-carboxamide] yielded an IC50 in experiment [1] of more than 1000 nM. Besides, the Ki in experiment [2] is less than 100 nM.
Turning to `CCS(=O)(=O)c1ccc([C@@H](COC(N)=O)NC(=O)c2ccc3c(c2)nc(C[C@H]2CC[C@H](C(F)(F)F)CC2)n3C2CC2)cc1` [BE-67, (S)-2-(1-cyclopropyl-2-(((1r,4S)-4-(trifluoromethyl)cyclohexyl)methyl)-1H-benzo[d]imidazole-5-carboxamido)-2-(4-(ethylsulfonyl)phenyl)ethyl carbamate], in experiment [1], the IC50 was less than 100 nM. Besides, the inhibitory constant (Ki) in experiment [2] is less than 100 nM.
In turn, `CCn1c(C[C@H]2CC[C@@H](C(F)(F)F)CC2)cc2cc(C(=O)N[C@@H](CO)c3ccc(S(=O)(=O)CC)cc3)ccc21` [IN-16.2, 1-ethyl-N-((R)-1-(4-(ethylsulfonyl)phenyl)-2-hydroxyethyl)-2-(((1s,4S)-4-(trifluoromethyl)cyclohexyl)methyl)-1H-indole-5-carboxamide] had a concentration for half-maximal inhibition (IC50) in experiment [1] of more than 1000 nM. The inhibition constant Ki in experiment [2] was less than 100 nM.
Regarding `CCn1c(C[C@H]2CC[C@@H](C(F)(F)F)CC2)cc2cc(C(=O)NCc3ccc(S(=O)(=O)CC)cn3)ccc21` [IN-15.2, 1-ethyl-N-((5-(ethylsulfonyl)pyridin-2-yl)methyl)-2-(((1s,4s)-4-(trifluoromethyl)cyclohexyl)methyl)-1H-indole-5-carboxamide], the IC50 in experiment [1] was more than 1000 nM. The Ki in experiment [2] was less than 100 nM.

(Values after US10829448B2, “Substituted benzoimidazoles as modulators of ROR-γ” (Vitae Pharmaceuticals, LLC, priority 2015, dated 2020).)
